{
  "source": "patent US12043670B2",
  "about": "“Anti-BCMA antibody-drug conjugates and methods of use” (Eisai R&D Management Co., Ltd., priority 2020, dated 2024)",
  "key": {"[1]": {"assay": "Chemical stability in buffer pH 5.5", "format": "physicochemical", "details": "Mcilvane (Citrate-Phosphate) buffer pH 5.5, 37° C., read-out: Stability %, Mean, t1/2 pH 5.5 (converted)", "description": "Payloads were incubated in Mcilvane (Citrate-Phosphate) buffer, pH 5.5 (Boston Bioproducts; #BB-2466) at a final concentration of 20 μM (less than 0.5% DMSO from stock solution). The payload solution and the internal standard were pipetted into 96-well plates, run on UPLC (Waters Aquity H class), and analyzed for initial chromatographic signal (t=0). The column was a Waters UPLC HSS T31.8 μm 2.1×50 mm column (#186003538). A gradient of mobile phase A from 95% to 10% was employed over 1 min, where A was 0.1% formic acid in water and mobile phase B was 0.1% formic acid in acetonitrile (flow rate 0.9 mL/min). The remainder of the payload solution was kept in a plate shaker at 37° C. (Eppendorf ThermoMixer). Sample analyses by UPLC were repeated at 24, 72, and 96 hours post-incubation at 37° C. The area ratio response of the payload and internal standard was determined for three time points: time 0, day 1, and either day 3 or day 4. Time 0 was set to 100. The area ratio responses of the later time points were compared to time 0. Percent remaining was calculated as follows: (Area Ratio day X/Area Ratio time 0)*100=% remaining. The slope of the line was calculated in Excel comparing the log of % remaining and time point."}, "[2]": {"target": "T1, SF3b complex (Homo sapiens, UniProt O75533+Q7RTV0)", "T1 construct": "endogenous in cells; host or cells: nuclear extracts", "assay": "SF3B1 binding / scintillation proximity assay (SPA)", "details": "competition with 2.5 nM [3H]-pladienolide B probe", "description": "A scintillation proximity assay was performed to measure the binding affinity of compounds (“payloads”) to the SF3b complex. Batch immobilization of anti-SF3B1 antibody (MBL) to anti-mouse PVT SPA scintillation beads (PerkinElmer) was prepared. For every 2.5 mg of nuclear extracts, 5 μg of anti-SF3B1 antibody and 1.5 mg of beads were mixed in 150 μL PBS. The antibody-bead mixture was incubated for 30 min at room temperature (RT) and centrifuged at 18,000 g for 5 min. 150 μL PBS was used to resuspend every 1.5 mg antibody-bead mixture. The beads were suspended and added to the prepared nuclear extracts. The slurry was incubated for 2 hours at 4° C. with gentle mixing. The beads were then collected by centrifuging at 18,000 g for 5 min, and washed twice with PBS+0.1% Triton X-100. After a final centrifugation step, every 1.5 mg of beads was suspended with 150 μL of PBS. SF3b complexes were tested for [^3H]-labeled pladienolide B probe binding ([^3H]-PB), synthesized as previously described (Kotake et al. (2007) Nat Chem Biol. 3(9):570-5). 100 μL binding reactions were prepared with 50 μL bead slurry and by adding varying concentrations of PB or PB-OH, and after 30 min pre-incubation, 2.5 nM of [^3H]-PB was added. The mixture was incubated for 30 min, and luminescence signals were read using a MicroBeta2 Plate Counter (PerkinElmer). […]"}, "[3]": {"tested_on": "OPM2 cells", "assay": "CellTiter-Glo cell viability, OPM2 (normal serum)", "format": "cell-based, human", "details": "for GI50: Homo sapiens"}, "[4]": {"tested_on": "splicing of Ad2.2 pre-mRNA in HeLa nuclear extract", "assay": "In vitro splicing (IVS), qPCR readout, Ad2.2 substrate", "format": "biochemical", "description": "To evaluate payload activity in a cell-free system, an in vitro splicing assay was performed. The payloads were incubated with nuclear extracts and pre-mRNA substrate minigenes.\nHeLa nuclear extract preparation: HeLa S3 cell pellets were resuspended in hypotonic buffer (10 mM HEPES pH 7.9, 1.5 mM MgCl2, 10 mM KCl, 0.2 mM PMSF, 0.5 mM DTT) and the suspension was brought up to a total of 5 packed cell volume (PCV). After centrifugation, the supernatant was discarded, and the cells were brought up to 3 PCV with hypotonic buffer and incubated on ice for 10 min. Cells were lysed using a dounce homogenizer and then centrifuged. The supernatant was discarded, and the pellet was resuspended with ½ packed nuclear volume (PNV) of low salt buffer (20 mM HEPES pH 7.9, 1.5 mM MgCl2, 20 mM KCl, 0.2 mM EDTA, 25% glycerol, 0.2 mM PMSF, 0.5 mM DTT), followed by ½ PNV of high salt buffer (same as low salt buffer except 1.4 M KCl). The nuclei were gently mixed for 30 min before centrifuging. The supernatant (nuclear extract) was then dialyzed into storage buffer (20 mM HEPES pH 7.9, 100 mM KCl, 0.2 mM EDTA, 20% glycerol, 0.2 mM PMSF, 0.5 mM DTT). Protein concentration was determined using NanoDrop 8000 UV-Vis spectrophotometer (ThermoFisher Scientific). […]"}},
  "note": "Read-outs that look alike come from different tables or passages of the source.",
  "data": [
    {"smiles": "CC[C@H](O)[C@@H](C)[C@H]1O[C@@H]1C[C@@](C)(O)/C=C/C=C(\\C)[C@H]1OC(=O)C[C@H](O)CC[C@@](C)(O)[C@@H](OC(=O)N2CCNCC2)/C=C/[C@@H]1C", "note": "[D1, (2S,3S,6S,7R,10R,E)-7,10-dihydroxy-2-((R,2E,4E)-6-hydroxy-7-((2R,3R)-3-((2R,3S)-3-hydroxypentan-2-yl)oxiran-2-yl)-6-methylhepta-2,4-dien-2-yl)-3,7-dimethyl-12-oxooxacyclododec-4-en-6-yl piperazine-1-carboxylate]", "values": [
      {"measurement": "half-life at 20 μM", "setting": "[1]", "result": 24, "unit": "h"},
      {"measurement": "IC50", "setting": "[2]", "result": 21.3, "unit": "nM"},
      {"measurement": "GI50", "setting": "[3]; OPM-2, 96 h, read-out: CTGlo Mean GI50 OPM2 96 h", "result": 287, "unit": "nM"},
      {"measurement": "GI50", "setting": "[3]; OPM-2, 144 h", "result": 117, "unit": "nM"},
      {"measurement": "AUC (nM * % relative viability)", "setting": "[3]; OPM2 cells, 6 days", "result": 649.8734, "unit": "nM * % relative viability"},
      {"measurement": "LD50", "setting": "[3]; OPM2 cells, 6 days, CellTiter-Glo", "result": 256.8053, "unit": "nM"},
      {"measurement": "RminAve", "setting": "[3]; OPM2 cells, 6 days, negative = cell death vs T0", "result": "−99.7805", "unit": "%"},
      {"measurement": "CTGlo Mean LD50 OPM2 96 h", "setting": "[3]; payload alone, OPM2, 96 h", "result": 67.1, "unit": "nM"},
      {"measurement": "IC50", "setting": "[4]", "result": 25, "unit": "nM"}
    ]}
  ]
}
